Tests used:
KDR (VEGFR2) = KDR (VEGFR2) (Homo sapiens (Human), UniProt P35968); experiment: Z′-LYTE kinase inhibition assay (Invitrogen), KDR; type: biochemical; settings: Z′-LYTE method; for inhibition at 1 µM: 1 μM compound, read-out: % inhibition at 1 μM against KDR; for IC50: read-out: IC50 against KDR
Summary of the method: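 Z′-LYTE FRET assay: 10 μL reactions with 0.5–11.7 ng KDR and 2 μM Tyr 01 peptide in 50 mM HEPES pH 7.5, 10 mM MgCl2, 1 mM EGTA, 0.01% BRIJ-35, 1 h at room temperature. Development Reagent B (1:256) added for 60 min, fluorescence read; IC50 from concentration–inhibition curves.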

A549 cells = experiment: Inhibition of cancer cell growth, MTT assay, A549; type: cell-based; settings: Homo sapiens, A549, 72 h exposure
Summary of the method: (§1)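 IC50 derived from percent growth inhibition versus concentration, tested in triplicate. Growth inhibition came from MTT read at 570 nm after 72 h drug exposure, relative to viable cells at dosing. Cells (about 4000/well, RPMI 1640 + 10% FBS) adhered 24 h before treatment; final DMSO 1%.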

BRAF V600E = BRAF V600E (Homo sapiens (Human), UniProt P15056, V600E); experiment: Z′-LYTE kinase inhibition assay (Invitrogen), BRAF V600E; type: biochemical; settings: Z′-LYTE method; for inhibition at 1 µM: 1 μM compound, read-out: % inhibition at 1 μM against BRAF V600E; for IC50: read-out: IC50 against BRAF V600E
BRAF V600E, sequence (P15056 whole entry V600E): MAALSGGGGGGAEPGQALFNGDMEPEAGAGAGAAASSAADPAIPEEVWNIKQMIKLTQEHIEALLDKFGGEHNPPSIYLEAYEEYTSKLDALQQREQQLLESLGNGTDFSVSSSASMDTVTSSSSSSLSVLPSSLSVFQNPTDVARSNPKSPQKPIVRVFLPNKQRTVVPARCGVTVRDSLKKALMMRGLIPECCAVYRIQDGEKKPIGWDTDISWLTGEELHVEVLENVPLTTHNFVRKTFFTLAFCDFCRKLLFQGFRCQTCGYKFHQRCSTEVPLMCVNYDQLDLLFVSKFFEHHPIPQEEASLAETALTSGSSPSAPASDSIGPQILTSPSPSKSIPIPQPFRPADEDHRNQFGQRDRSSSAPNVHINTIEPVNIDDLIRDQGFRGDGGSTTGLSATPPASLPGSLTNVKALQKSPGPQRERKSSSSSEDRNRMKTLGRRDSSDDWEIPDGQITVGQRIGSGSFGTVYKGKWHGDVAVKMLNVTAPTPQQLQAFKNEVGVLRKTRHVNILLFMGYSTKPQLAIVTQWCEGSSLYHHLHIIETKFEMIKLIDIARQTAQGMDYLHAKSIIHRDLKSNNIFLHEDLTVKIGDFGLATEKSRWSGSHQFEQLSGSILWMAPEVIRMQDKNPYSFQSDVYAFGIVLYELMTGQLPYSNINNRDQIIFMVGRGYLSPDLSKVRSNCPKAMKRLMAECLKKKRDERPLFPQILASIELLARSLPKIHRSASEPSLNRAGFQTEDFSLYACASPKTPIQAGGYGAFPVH
Summary of the method: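 FRET-based Z′-LYTE peptide phosphorylation format in 50 mM HEPES pH 7.5, 0.01% BRIJ-35, 10 mM MgCl2, 1 mM EGTA with ATP. Kinase reaction 60 min at room temperature, then protease development step 60 min at room temperature before fluorescence read. IC50 from compound concentration versus percent inhibition.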

A375 cells = experiment: Inhibition of cancer cell growth, MTT assay, A375; type: cell-based; settings: Homo sapiens, A-375, 72 h exposure
Summary of the method: as §1

BRAF = BRAF (Homo sapiens (Human), UniProt P15056); experiment: Z′-LYTE kinase inhibition assay (Invitrogen), BRAF; type: biochemical; settings: 1 μM compound, Z′-LYTE method; read-out: % inhibition at 1 μM against BRAF
BRAF, sequence (P15056 whole entry): as the sequence (P15056 whole entry V600E) above, with E600V counted along it
Procedure: Inhibitory activities Inhibitory activities of compounds against BRAF, and BRAF V600E were measured by Invitrogen using Z′-LYTE® Method as briefly described in the following. 4× Test compounds are dissolved in 1% DMSO. […] ATP solutions are diluted to a 4×ATP working concentration in Kinase Buffer (50 mM HEPES pH 7.5, 0.01% BRIJ-35, 10 mM MgCl2, 1 mM EGTA). Reaction started by 30-second shaking of mixture consisting of 2.5 μL 4× test compound, […] and 2.5 μL 4×ATP Solution on Bar-coded Corning, low volume NBS, black 384-well plate (Corning Cat. #3676). Then the mixture was incubated for 60-minute at room temperature for the kinase reaction, followed by addition of 5 μL of a 1:1024 dilution of development reagent A and 30-second plate shake. The mixture was then incubated for another 60-minute at room temperature for development reaction. Fluorescence was read by plate reader. IC50 was calculated by plotting the concentration of compound vs the percentage of inhibition in treated wells using GraphPad Prism 5.

KDR (VEGFR2), sequence (P35968 20-1356): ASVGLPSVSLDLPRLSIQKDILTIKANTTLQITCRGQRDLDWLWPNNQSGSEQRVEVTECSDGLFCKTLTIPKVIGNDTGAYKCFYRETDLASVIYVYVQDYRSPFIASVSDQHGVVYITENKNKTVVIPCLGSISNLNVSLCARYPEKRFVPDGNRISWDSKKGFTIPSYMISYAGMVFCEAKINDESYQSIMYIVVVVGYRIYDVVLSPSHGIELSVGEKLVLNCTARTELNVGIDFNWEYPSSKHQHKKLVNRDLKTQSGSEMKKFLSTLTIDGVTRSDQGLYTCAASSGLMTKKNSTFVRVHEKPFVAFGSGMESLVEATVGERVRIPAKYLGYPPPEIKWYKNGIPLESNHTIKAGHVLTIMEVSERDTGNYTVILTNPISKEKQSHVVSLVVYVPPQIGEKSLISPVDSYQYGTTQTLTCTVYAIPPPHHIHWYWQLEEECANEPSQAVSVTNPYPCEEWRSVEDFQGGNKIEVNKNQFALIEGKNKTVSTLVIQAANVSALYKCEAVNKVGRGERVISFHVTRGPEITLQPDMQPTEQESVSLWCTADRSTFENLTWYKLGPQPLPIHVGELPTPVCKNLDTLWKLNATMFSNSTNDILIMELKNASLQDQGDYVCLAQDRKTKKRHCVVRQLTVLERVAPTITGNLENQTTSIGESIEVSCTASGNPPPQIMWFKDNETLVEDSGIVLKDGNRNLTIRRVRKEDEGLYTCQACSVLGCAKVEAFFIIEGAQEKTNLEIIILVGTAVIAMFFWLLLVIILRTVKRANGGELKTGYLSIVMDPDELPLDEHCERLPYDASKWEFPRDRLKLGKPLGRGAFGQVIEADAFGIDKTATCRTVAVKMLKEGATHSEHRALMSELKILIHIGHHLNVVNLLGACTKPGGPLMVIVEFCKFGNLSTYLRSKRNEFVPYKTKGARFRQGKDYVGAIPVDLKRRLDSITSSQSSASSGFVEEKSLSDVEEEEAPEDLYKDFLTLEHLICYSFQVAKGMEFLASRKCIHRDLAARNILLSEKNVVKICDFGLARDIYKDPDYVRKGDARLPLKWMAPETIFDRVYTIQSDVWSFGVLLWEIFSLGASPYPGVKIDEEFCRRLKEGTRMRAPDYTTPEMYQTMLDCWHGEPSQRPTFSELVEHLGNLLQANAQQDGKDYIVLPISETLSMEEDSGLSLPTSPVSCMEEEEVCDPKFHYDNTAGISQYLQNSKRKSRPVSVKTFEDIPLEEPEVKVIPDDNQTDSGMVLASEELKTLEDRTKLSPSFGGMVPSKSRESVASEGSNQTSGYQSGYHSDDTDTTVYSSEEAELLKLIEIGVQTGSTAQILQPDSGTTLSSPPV

SMILES	inhibition at 1 µM (KDR (VEGFR2))	IC50 (KDR (VEGFR2))	IC50 (A549 cells)	inhibition at 1 µM (BRAF V600E)	IC50 (BRAF V600E)	IC50 (A375 cells)	inhibition at 1 µM (BRAF)
O=C(Nc1ccc(Cl)c(C(F)(F)F)c1)Nc1cc(F)c(F)c(C(=O)c2ccc3nccnc3c2)c1F [Compound C007, 1-(4-chloro-3-(trifluoromethyl)phenyl)-3-(2,4,5-trifluoro-3-(quinoxaline-6-carbonyl)phenyl)urea]	< 70%	–	2 to 5 µM	< 70%	–	1 to 5 µM	< 70%
O=C(Nc1cncc(Cl)c1)Nc1ccc(F)c(C(=O)c2ccc3ncc(N4CCOCC4)nc3c2)c1 [Compound C081, 1-(5-chloropyridin-3-yl)-3-(4-fluoro-3-(3-morpholinoquinoxaline-6-carbonyl)phenyl)urea]	70 to 89%	–	> 5 µM	> 89%	–	< 1 µM	> 89%
O=C(Nc1cccc(F)c1)Nc1ccc(F)c(C(=O)c2ccc3ncc(N4CCOCC4)nc3c2)c1 [Compound C035, 1-(4-fluoro-3-(3-morpholinoquinoxaline-6-carbonyl)phenyl)-3-(3-fluorophenyl)urea]	70 to 89%	< 0.1 µM	2 to 5 µM	> 89%	< 0.1 µM	< 1 µM	70 to 89%
O=C(Nc1cccc(C(=O)c2ccc3ncc(-n4ccnc4)nc3c2)c1)c1ccc(Cl)c(C(F)(F)F)c1 [Compound C132, N-(3-(3-(1H-imidazol-1-yl)quinoxaline-6-carbonyl)phenyl)-4-chloro-3-(trifluoromethyl)benzamide]	70 to 89%	–	> 5 µM	> 89%	–	< 1 µM	< 70%
O=C(Nc1cccc(C(=O)c2ccc3ncc(N4CCCC4)nc3c2)c1)c1cccc(C(F)(F)F)c1 [Compound C122, N-(3-(3-(pyrrolidin-1-yl)quinoxaline-6-carbonyl)phenyl)-3-(trifluoromethyl)benzamide]	> 89%	< 0.1 µM	2 to 5 µM	> 89%	< 0.1 µM	1 to 5 µM	70 to 89%
O=C(Nc1ccc(F)cc1)Nc1ccc(F)c(C(=O)c2ccc3ncc(N4CCOCC4)nc3c2)c1 [Compound C053, 1-(4-fluoro-3-(3-morpholinoquinoxaline-6-carbonyl)phenyl)-3-(4-fluorophenyl)urea]	> 89%	< 0.1 µM	< 2 µM	> 89%	–	< 1 µM	> 89%
O=C(Nc1ccc(F)c(F)c1)Nc1ccc(F)c(C(=O)c2ccc3ncc(NCCO)nc3c2)c1 [Compound C087, 1-(3,4-difluorophenyl)-3-(4-fluoro-3-(3-((2-hydroxyethyl)amino)quinoxaline-6-carbonyl)phenyl)urea]	> 89%	–	2 to 5 µM	> 89%	–	< 1 µM	> 89%
O=C(Nc1cc(F)c(F)c(C(=O)c2ccc3ncc(N4CCOCC4)nc3c2)c1)c1cccc(C(F)(F)F)c1 [Compound C145, N-(3,4-difluoro-5-(3-morpholinoquinoxaline-6-carbonyl)phenyl)-3-(trifluoromethyl)benzamide]	> 89%	< 0.1 µM	> 5 µM	> 89%	< 0.1 µM	< 1 µM	< 70%

Now from value to compound:

inhibition at 1 µM (KDR (VEGFR2))	IC50 (KDR (VEGFR2))	IC50 (A549 cells)	inhibition at 1 µM (BRAF V600E)	IC50 (BRAF V600E)	IC50 (A375 cells)	inhibition at 1 µM (BRAF)	SMILES
70 to 89%	< 0.1 µM	< 2 µM	70 to 89%	> 0.1 µM	< 1 µM	< 70%	O=C(Nc1cccc(C(=O)c2ccc3ncc(N4CCCC4)nc3c2)c1)c1cccc(F)c1 [Compound C121, 3-fluoro-N-(3-(3-(pyrrolidin-1-yl)quinoxaline-6-carbonyl)phenyl)benzamide]
> 89%	–	> 5 µM	> 89%	–	1 to 5 µM	70 to 89%	O=C(Nc1cccc(C(=O)c2ccc3ncc(N4CCCC4)nc3c2)c1)Nc1cccc(C(F)(F)F)c1 [Compound C020, 1-(3-(3-(pyrrolidin-1-yl)quinoxaline-6-carbonyl)phenyl)-3-(3-(trifluoromethyl)phenyl)urea]
< 70%	–	< 2 µM	70 to 89%	–	> 5 µM	< 70%	O=C(Nc1cccc(C(=O)c2ccc3nccnc3c2)c1)c1ccc(Cl)c(C(F)(F)F)c1 [Compound C111, 4-chloro-N-(3-(quinoxaline-6-carbonyl)phenyl)-3-(trifluoromethyl)benzamide]
> 89%	< 0.1 µM	2 to 5 µM	> 89%	< 0.1 µM	1 to 5 µM	70 to 89%	O=C(Nc1cccc(C(=O)c2ccc3ncc(-c4cn[nH]c4)nc3c2)c1)Nc1ccc(Cl)c(C(F)(F)F)c1 [Compound C029, 1-(3-(3-(1H-pyrazol-4-yl)quinoxaline-6-carbonyl)phenyl)-3-(4-chloro-3-(trifluoromethyl)phenyl)urea]
70 to 89%	–	2 to 5 µM	> 89%	–	1 to 5 µM	70 to 89%	O=C(Nc1cccc(F)c1)Nc1cc(F)c(F)c(C(=O)c2ccc3ncc(N4CCOCC4)nc3c2)c1 [Compound C039, 1-(3,4-difluoro-5-(3-morpholinoquinoxaline-6-carbonyl)phenyl)-3-(3-fluorophenyl)urea]
70 to 89%	> 0.1 µM	< 2 µM	70 to 89%	> 0.1 µM	< 1 µM	< 70%	O=C(Nc1cccc(C(F)(F)F)c1)Nc1cc(F)c(F)c(C(=O)c2ccc3ncc(N4CCOCC4)nc3c2)c1 [Compound C040, 1-(3,4-difluoro-5-(3-morpholinoquinoxaline-6-carbonyl)phenyl)-3-(3-(trifluoromethyl)phenyl)urea]
> 89%	< 0.1 µM	2 to 5 µM	70 to 89%	> 0.1 µM	< 1 µM	< 70%	O=C(Nc1ccc(F)c(C(=O)c2ccc3ncc(N4CCOCC4)nc3c2)c1)Nc1ccc(Cl)c(C(F)(F)F)c1 [Compound C030, 1-(4-chloro-3-(trifluoromethyl)phenyl)-3-(4-fluoro-3-(3-morpholinoquinoxaline-6-carbonyl)phenyl)urea]
< 70%	–	> 5 µM	> 89%	–	1 to 5 µM	< 70%	O=C(Nc1cccc(C(=O)c2ccc3nccnc3c2)c1)c1ccc(C(F)(F)F)c(Cl)c1 [Compound C107, 3-chloro-N-(3-(quinoxaline-6-carbonyl)phenyl)-4-(trifluoromethyl)benzamide]
> 89%	< 0.1 µM	< 2 µM	70 to 89%	< 0.1 µM	< 1 µM	< 70%	O=C(Nc1cccc(C(F)(F)F)c1)Nc1ccc(F)c(C(=O)c2ccc3ncc(N4CCOCC4)nc3c2)c1 [Compound C036, 1-(4-fluoro-3-(3-morpholinoquinoxaline-6-carbonyl)phenyl)-3-(3-(trifluoromethyl)phenyl)urea]
70 to 89%	–	2 to 5 µM	70 to 89%	–	1 to 5 µM	< 70%	O=C(Nc1cc(F)cc(C(=O)c2ccc3nccnc3c2)c1)Nc1ccc(Cl)c(C(F)(F)F)c1 [Compound C026, 1-(4-chloro-3-(trifluoromethyl)phenyl)-3-(3-fluoro-5-(quinoxaline-6-carbonyl)phenyl)urea]
70 to 89%	–	< 2 µM	70 to 89%	–	< 1 µM	< 70%	O=C(Nc1cc(F)c(F)c(C(=O)c2ccc3nccnc3c2)c1)Nc1ccc(Cl)c(C(F)(F)F)c1 [Compound C023, 1-(4-chloro-3-(trifluoromethyl)phenyl)-3-(3,4-difluoro-5-(quinoxaline-6-carbonyl)phenyl)urea]

From patent publication US10759766B2, “Certain chemical entities, compositions, and methods” (NeuPharma, Inc., priority 2011, dated 2020)
